Read-outs that look alike come from different tables or passages of the source.
Tests used:
hERG K+ channel = biological target: T1, hERG K+ channel (Homo sapiens, UniProt Q12809); test: PDSP radioligand binding at hERG; conditions: human; at 10,000 nM; N = 5; read-out: Binding Affinity at hERG % Inhibition (Primary Binding)
T1 construct: purchased NIMH Psychoactive Drug Screening Program (PDSP)
Method: (§1) To determine if any off-target receptor-binding effects are present, all the novel ligands were sent to the National Institute of Mental Health (NIMH), Psychoactive Drug Screening Program (PDSP). The ligands were screened over a panel of 47 receptors, ion channels, and transporters to determine any other possible interactions with […]. The hERG-binding was also determined. […] No binding of the test compounds to calcium channels was observed. […] It is necessary to screen the compounds for hERG-binding during the early process of drug discovery. The unintentional binding of many drugs to hERG can cause blockade of hERG K+ channels in the heart, which can cause many side effects including cardiac arrhythmias and sudden death. […] All of the α5 imidazodiazepines were tested for hERG-binding.
(§2) The NIMH PDSP assay protocol book [https://kidbdev.med.unc.edu/databases/PDSP%20Protocols%20II%202013-03-28.pdf accessed on 23 April 2023]. describes the protocols for primary and secondary radio-ligand binding assays. These assays were carried out in a final volume of 125 µL per well in the appropriate binding buffer.
(§3) The binding of a ligand to a receptor, ion channel, or transporter was determined in the […] of 10 µM of the appropriate reference compound. […] Plates were incubated in the dark for 90 min at rt, and the reactions were stopped by vacuum filtration onto 0.3% polyethyleneimine (PEI) soaked 96-well filter mats using a 96-well Filtermateharvester. This was followed by three washes with cold PBS buffer. Radioactivity was then counted on a Microbeta counter. Nonlinear regression was used to analyze the data with N = 6 replicates.

[1] = biological target: kappa opioid receptors (KOR) (Homo sapiens, UniProt P41145); test: PDSP radioligand binding at KOR; conditions: for inhibition at 10 µM: 1.5 h
Sequence of kappa opioid receptors (KOR) (P41145 whole entry): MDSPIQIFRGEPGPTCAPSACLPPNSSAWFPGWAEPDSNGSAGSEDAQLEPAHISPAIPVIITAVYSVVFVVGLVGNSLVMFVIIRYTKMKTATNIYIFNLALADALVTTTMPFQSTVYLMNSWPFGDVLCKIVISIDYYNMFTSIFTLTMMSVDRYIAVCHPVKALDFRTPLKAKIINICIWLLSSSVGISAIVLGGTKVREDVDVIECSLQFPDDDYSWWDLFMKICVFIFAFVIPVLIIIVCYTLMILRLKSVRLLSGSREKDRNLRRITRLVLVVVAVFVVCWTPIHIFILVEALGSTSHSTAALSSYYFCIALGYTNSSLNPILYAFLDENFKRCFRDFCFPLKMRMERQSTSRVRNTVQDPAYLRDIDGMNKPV
From the text: (§4) Opioid receptors are a family of inhibitory G-coupled protein receptors where opioids act as the ligand. The kappa opioid receptors (KOR), µ and δ opioid receptors (MOR and DOR), and nociception opioid receptor (NOP) fall under the family of opioids receptors. It has been reported that oxadiazole imidazodiazepines can mediate analgesic and anti-inflammatory properties mediated also by the κ opioid receptor (KOR). The binding at KOR is usually silent. The affinities of the test compounds for KOR, DOR, and MOR were determined using radioligand binding assays at a screening concentration of 10,000 nM in collaboration with the National Institute of Mental Health’s Psychoactive Drug Screening Program (PDSP), as mentioned before. Concentration-dependent experiments were conducted to determine Ki values for the compounds that exceeded more than 50% radioligand displacement in primary binding assays.
as §2, §3

DOR = biological target: T2, DOR (Homo sapiens, UniProt P41143); test: PDSP radioligand binding at DOR
T2 construct: purchased NIMH Psychoactive Drug Screening Program (PDSP)
T2 sequence (P41143 whole entry): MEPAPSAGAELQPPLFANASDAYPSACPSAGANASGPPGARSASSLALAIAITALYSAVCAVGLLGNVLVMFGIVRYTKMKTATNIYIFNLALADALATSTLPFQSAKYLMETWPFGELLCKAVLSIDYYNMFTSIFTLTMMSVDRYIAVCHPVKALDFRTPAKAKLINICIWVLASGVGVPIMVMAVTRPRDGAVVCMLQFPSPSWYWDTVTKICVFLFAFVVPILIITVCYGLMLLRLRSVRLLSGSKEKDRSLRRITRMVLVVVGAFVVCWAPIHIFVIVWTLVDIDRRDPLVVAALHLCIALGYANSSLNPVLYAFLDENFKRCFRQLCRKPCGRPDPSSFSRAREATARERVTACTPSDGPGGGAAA
From the text: as §4, §2, §3

5-HT1E = biological target: T3, 5-HT1E (Homo sapiens, UniProt P28566); test: PDSP primary binding 5-HT1E; conditions: primary binding, 10,000 nM; last figure of the line = mean of the 4 before it
T3 construct: purchased NIMH Psychoactive Drug Screening Program (PDSP)
T3 sequence (P28566 whole entry): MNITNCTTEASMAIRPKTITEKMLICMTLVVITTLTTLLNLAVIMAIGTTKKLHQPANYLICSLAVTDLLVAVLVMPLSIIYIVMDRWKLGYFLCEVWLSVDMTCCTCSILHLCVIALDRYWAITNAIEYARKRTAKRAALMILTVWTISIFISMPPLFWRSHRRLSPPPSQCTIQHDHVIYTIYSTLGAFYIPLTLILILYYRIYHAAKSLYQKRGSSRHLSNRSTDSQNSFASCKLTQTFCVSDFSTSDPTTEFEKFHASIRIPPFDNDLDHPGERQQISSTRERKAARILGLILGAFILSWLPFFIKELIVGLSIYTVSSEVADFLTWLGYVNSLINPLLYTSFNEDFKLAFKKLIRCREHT
Method: as §1, §2, §3

5-HT2C = biological target: T4, 5-HT2C (Homo sapiens, UniProt P28335); test: PDSP primary binding 5-HT2C; conditions: 1.5 h; primary binding, 10,000 nM; last figure of the line = mean of the 4 before it; read-out: 5-HT2C, PDSP raw data, mean
T4 construct: purchased NIMH Psychoactive Drug Screening Program (PDSP)
T4 sequence (P28335 33-458): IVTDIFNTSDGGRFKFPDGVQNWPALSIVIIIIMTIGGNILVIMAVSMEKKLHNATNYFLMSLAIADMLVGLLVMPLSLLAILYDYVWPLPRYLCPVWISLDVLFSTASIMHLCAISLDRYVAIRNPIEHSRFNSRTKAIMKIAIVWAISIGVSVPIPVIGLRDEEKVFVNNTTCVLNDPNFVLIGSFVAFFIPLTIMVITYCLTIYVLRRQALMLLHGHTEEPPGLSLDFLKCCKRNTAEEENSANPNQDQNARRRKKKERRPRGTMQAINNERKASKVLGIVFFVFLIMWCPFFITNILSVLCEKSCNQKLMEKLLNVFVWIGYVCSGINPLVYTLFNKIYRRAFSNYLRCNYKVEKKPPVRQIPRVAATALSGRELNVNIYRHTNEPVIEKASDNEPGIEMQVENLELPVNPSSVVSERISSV
Method: as §1, §2, §3

5-HT7A = biological target: T5, 5-HT7A (Homo sapiens, UniProt P34969); test: PDSP primary binding 5-HT7A; conditions: 1.5 h; primary binding, 10,000 nM; last figure of the line = mean of the 4 before it; read-out: 5-HT7A, PDSP raw data, mean
T5 construct: purchased NIMH Psychoactive Drug Screening Program (PDSP)
T5 sequence (P34969 1-445 isoform P34969-2): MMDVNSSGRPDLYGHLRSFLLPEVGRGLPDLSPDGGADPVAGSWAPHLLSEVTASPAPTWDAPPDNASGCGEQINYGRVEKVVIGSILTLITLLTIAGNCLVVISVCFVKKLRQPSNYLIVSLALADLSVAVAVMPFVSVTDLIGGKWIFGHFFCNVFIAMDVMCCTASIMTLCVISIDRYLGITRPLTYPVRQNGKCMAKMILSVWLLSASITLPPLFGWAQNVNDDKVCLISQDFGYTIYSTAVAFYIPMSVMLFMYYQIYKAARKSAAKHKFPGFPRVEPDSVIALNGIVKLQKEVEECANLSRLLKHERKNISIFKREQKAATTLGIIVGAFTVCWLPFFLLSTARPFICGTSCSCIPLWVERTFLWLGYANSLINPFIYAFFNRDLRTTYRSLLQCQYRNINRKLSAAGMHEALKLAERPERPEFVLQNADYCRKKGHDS
Method: as §1, §2, §3

Alpha2A = biological target: T6, Alpha2A (Homo sapiens, UniProt P08913); test: PDSP primary binding Alpha2A; conditions: 1.5 h; primary binding, 10,000 nM; last figure of the line = mean of the 4 before it; read-out: Alpha2A, PDSP raw data, mean
T6 construct: purchased NIMH Psychoactive Drug Screening Program (PDSP)
T6 sequence (P08913 1-465): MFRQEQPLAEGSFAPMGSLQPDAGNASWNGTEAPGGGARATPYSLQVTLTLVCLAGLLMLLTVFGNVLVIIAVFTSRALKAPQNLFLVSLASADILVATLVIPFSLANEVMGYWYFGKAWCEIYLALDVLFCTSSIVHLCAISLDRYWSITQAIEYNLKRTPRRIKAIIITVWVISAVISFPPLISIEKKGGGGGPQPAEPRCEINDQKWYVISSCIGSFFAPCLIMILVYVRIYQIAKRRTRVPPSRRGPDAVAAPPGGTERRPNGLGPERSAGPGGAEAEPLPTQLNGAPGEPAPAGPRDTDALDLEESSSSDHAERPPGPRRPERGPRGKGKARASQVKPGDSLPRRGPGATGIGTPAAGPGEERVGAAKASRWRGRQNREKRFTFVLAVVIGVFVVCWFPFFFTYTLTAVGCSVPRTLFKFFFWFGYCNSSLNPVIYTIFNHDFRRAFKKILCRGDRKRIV
Method: as §1, §2, §3

GABAA = test: PDSP primary binding GABAA; conditions: primary binding, 10,000 nM; last figure of the line = mean of the 4 before it; some tables list it twice
Method: as §1, §2, §3

AMPA = test: PDSP primary binding AMPA; conditions: primary binding, 10,000 nM; last figure of the line = mean of the 4 before it
Method: as §1, §2, §3

Kainate (Rat Brain) = test: PDSP primary binding Kainate (Rat Brain); conditions: primary binding, 10,000 nM; last figure of the line = mean of the 4 before it
Method: as §1, §2, §3

M3D = biological target: T7, M3D (Homo sapiens, UniProt P20309, A239G/Y149C); test: PDSP primary binding M3D; conditions: primary binding, 10,000 nM; last figure of the line = mean of the 4 before it; read-out: M3D, PDSP raw data, mean
T7 construct: purchased NIMH Psychoactive Drug Screening Program (PDSP)
T7 sequence (P20309 whole entry Y149C/A239G): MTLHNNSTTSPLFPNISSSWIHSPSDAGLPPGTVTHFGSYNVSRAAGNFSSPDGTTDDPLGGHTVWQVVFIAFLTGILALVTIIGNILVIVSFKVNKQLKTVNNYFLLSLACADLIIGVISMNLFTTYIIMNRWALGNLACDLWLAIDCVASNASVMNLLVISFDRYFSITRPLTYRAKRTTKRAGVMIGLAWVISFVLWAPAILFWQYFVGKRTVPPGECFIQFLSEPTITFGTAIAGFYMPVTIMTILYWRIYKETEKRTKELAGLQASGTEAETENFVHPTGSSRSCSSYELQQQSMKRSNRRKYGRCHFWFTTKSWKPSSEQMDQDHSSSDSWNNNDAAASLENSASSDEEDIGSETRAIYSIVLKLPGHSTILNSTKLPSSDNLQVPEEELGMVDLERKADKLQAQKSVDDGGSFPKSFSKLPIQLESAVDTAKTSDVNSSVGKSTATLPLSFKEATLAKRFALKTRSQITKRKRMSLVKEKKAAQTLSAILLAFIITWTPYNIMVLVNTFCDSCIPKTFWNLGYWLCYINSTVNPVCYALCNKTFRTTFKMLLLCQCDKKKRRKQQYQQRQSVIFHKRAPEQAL
Method: as §1, §2, §3

Alpha7 = test: PDSP primary binding Alpha7; conditions: primary binding, 10,000 nM; last figure of the line = mean of the 4 before it
Method: as §1, §2, §3

[2] = at 10,000 nM, N = 5, [3H]-U69593 0.83 nM, read-out: Primary Binding %KOR
[3] = primary binding, 10,000 nM, last figure of the line = mean of the 4 before it, read-out: KOR, PDSP raw data, mean
[4] = at 10,000 nM, N = 5, [3H]-DADLE 2.69 nM, read-out: Primary Binding %DOR
[5] = primary binding, 10,000 nM, last figure of the line = mean of the 4 before it, read-out: DOR, PDSP raw data, mean

T1 sequence (Q12809 whole entry): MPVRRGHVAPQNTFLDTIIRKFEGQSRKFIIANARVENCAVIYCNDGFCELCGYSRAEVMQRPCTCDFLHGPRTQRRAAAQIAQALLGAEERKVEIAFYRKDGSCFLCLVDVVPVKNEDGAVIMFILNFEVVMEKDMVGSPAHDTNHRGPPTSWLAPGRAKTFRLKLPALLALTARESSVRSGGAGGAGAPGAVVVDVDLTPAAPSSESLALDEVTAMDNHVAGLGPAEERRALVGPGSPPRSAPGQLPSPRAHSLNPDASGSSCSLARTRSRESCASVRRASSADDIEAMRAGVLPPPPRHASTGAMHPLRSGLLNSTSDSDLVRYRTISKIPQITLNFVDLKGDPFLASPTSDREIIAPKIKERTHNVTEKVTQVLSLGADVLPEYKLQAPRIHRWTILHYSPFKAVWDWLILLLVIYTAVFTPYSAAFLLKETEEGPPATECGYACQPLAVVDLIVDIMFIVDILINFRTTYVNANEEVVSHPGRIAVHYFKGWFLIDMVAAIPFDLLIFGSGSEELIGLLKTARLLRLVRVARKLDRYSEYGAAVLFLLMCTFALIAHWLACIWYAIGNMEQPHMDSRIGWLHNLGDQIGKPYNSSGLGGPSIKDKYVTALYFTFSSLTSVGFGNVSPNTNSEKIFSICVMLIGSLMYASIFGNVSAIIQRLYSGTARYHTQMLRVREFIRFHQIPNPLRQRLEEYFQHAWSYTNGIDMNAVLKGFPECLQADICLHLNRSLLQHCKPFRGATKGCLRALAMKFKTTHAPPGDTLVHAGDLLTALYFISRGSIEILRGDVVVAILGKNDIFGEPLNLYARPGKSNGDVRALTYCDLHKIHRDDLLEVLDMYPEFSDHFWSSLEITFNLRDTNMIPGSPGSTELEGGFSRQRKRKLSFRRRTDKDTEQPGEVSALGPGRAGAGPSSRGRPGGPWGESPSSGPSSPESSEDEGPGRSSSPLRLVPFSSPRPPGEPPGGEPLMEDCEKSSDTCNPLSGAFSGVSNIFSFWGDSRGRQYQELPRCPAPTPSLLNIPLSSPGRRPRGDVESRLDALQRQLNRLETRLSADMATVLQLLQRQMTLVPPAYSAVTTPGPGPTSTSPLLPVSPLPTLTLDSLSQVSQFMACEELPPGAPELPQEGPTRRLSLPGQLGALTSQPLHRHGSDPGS

Structure (SMILES) | inhibition at 90 min, 10000 nM (hERG K+ channel) [%] | inhibition at 10 µM [1, 2] [%] | inhibition at 10 µM [1, 3] [%] | Ki ([1]; secondary screening, N = 2, read-out: KOR (Ki)) [nM] | inhibition at 10 µM (DOR; [4]) [%] | inhibition at 10 µM (DOR; [5]) [%] | 5-HT1E, PDSP raw data, mean (5-HT1E) [%] | inhibition at 10 µM (5-HT2C) [%] | inhibition at 10 µM (5-HT7A) [%] | inhibition at 10 µM (Alpha2A) [%] | GABAA, PDSP raw data, mean (GABAA) [%] | AMPA, PDSP raw data, mean (AMPA) [%] | Kainate (Rat Brain), PDSP raw data, mean (Kainate (Rat Brain)) [%] | inhibition at 10 µM (M3D) [%] | Alpha7, PDSP raw data, mean (Alpha7) [%] | Ki [1] [nM]
C[C@H]1N=C(c2ccccc2F)c2cc(-c3ccccc3)ccc2-n2cnc(C(=O)N(C)C)c21 [Compound 5, (R)-6-(2′-Fluorophenyl)-N,N,4-trimethyl-8-phenyl-4H-benzo[f]imidazo[1,5-a][1,4]diazepine-3-carboxamide] | -0.48 ± 4.52 | 53.6 ± 7.24 | 53.6 | 2140 ± 311 | 43 ± 7.83 | 43 | 34.07 | 18 | 4.31 | 5.99 | -4.01 | 7.77 | 3.43 | 4.84 | -18.33 | 
C#Cc1ccc2c(c1)C(c1ccccc1Cl)=N[C@H](C)c1c(C(=O)NC)ncn1-2 [Compound 21, (R)-6-(2′-Chlorophenyl)-8-ethynyl-N,4-dimethyl-4H-benzo[f]imidazo[1,5-a][1,4]diazepine-3-carboxamide] | -5.73 ± 11.1 | 69.6 ± 6.01 | 69.6 |  | 28.3 ± 4.67 | 28.3 | 7.75 | -14.2 | -12.3 | -1.1 | 12.76 | -31.95 | -4.58 | 0.48 | -10.85 | 660 ± 159
C#Cc1ccc2c(c1)C(c1ccccn1)=N[C@@H](C)c1c(C(=O)NC)ncn1-2 [Compound 23, (S)-8-Ethynyl-N,4-dimethyl-6-(pyridin-2′-yl)-4H-benzo[f]imidazo[1,5-a][1,4]diazepine-3-carboxamide] | -4.24 ± 3.47 | 26.9 ± 6.21 | 26.9 |  | 14.9 ± 8.84 | 14.9 | 19.33 | -10.1 | -13.5 | 5.8 | 23.24 | -17.23 | 37.08 | 9.08 | -5.28 | 
C#Cc1ccc2c(c1)C(c1ccccc1Cl)=N[C@H](C)c1c(C(=O)N(C)CC)ncn1-2 [Compound 29] | -1.55 ± 10.1 | 69.1 ± 29.1 | 69.1 |  | 39.5 ± 3.21 | 39.5 | 19.25 | -10.7 | -2.22 | 7.96 | 25.77 | -3.32 | 16.79 | 6.78 | -2.05 | 392 ± 78.8
CCc1noc(-c2ncn3c2[C@@H](C)N=C(c2ccccc2F)c2cc(Cl)ccc2-3)n1 [Compound 36, (R)-5-(8-Chloro-6-(2′-fluorophenyl)-4-methyl-4H-benzo[f]imidazo[1,5-a][1,4]diazepin-3-yl)-3-ethyl-1,2,4-oxadiazole] |  | 96.4 ± 3 | 96.4 |  | 40.7 ± 10.2 | 40.7 | 5.28 | 13.9 | 1.53 | -14.4 | 13.12 | -24.14 | 42.86 | -2.01 | -13.86 | 104 ± 7.58
CC(C)c1noc(-c2ncn3c2[C@@H](C)N=C(c2ccccc2F)c2cc(Cl)ccc2-3)n1 [Compound 37, (R)-5-(8-Chloro-6-(2′-fluorophenyl)-4-methyl-4H-benzo[f]imidazo[1,5-a][1,4]diazepin-3-yl)-3-isopropyl-1,2,4-oxadiazole] | 4.21 ± 10.8 | 99.2 ± 1.75 | 99.2 |  | 31.9 ± 9.58 | 31.9 | -14.78 | 17.5 | 12.1 | 22.8 |  | 20.59 | 35.39 | -23.4 | 21.26 | 46.3 ± 4.93
C[C@H]1N=C(c2ccccc2F)c2cc(Cl)ccc2-n2cnc(-c3nc(C4CC4)no3)c21 [Compound 38, (R)-5-(8-Chloro-6-(2′-fluorophenyl)-4-methyl-4H-benzo[f]imidazo[1,5-a][1,4]diazepin-3-yl)-3-cyclopropyl-1,2,4-oxadiazole] | 1.86 ± 25.6 | 98.9 ± 1.6 | 98.9 |  | 42.8 ± 8.94 | 42.7 | -22.45 | 7.18 | 11.9 | 15.6 |  | 21.42 | 36.46 | 6.92 | 11.55 | 82.2 ± 2.43

From article PMC10303271, “Synthesis and Receptor Binding Studies of α5 GABAAR Selective Novel Imidazodiazepines Targeted for Psychiatric and Cognitive Disorders” (Molecules, 2023)
